Source: patent US10322995B2, “Substituted cyano cycloalkyl penta-2,4-dienes, cyano cycloalkyl pent-2-en-4-ynes, cyano heterocyclyl penta-2,4-dienes and cyano heterocyclyl pent-2-en-4-ynes as active substances against abiotic plant stress” (BAYER CROPSCIENCE AKTIENGESELLSCHAFT, priority 2014, dated 2019)

How the values were obtained:
[1] = system: Triticum aestivum (TRZAS); assay: In vivo analyses Part C: drought stress, appearance vs stressed control plants in categories (TRZAS); set-up: key: 0: no positive effect; 10: slight positive effect; 20: clear positive effect; 30: strong positive effect; conditions: appearance vs stressed control plants after recovery phase, efficacy range of 3-4 pots
Protocol: Seeds of monocotyledonous and dicotyledonous crop plants were sown in sandy loam in plastic or wood-fibre pots, covered with soil or sand and cultivated in a greenhouse under good growth conditions. The test plants were treated at the early leaf stage (BBCH10-BBCH13). To assure uniform water supply before commencement of stress, the potted plants were supplied with water by dam irrigation prior to substance application. The inventive compounds were first formulated as wettable powders (WP) or dissolved in a solvent mixture. The further dilution was effected with water supplemented with 0.2% wetting agent (e.g. agrotin). The finished spray liquor was sprayed onto the green parts of the plant at an equivalent water application rate of 600 I/ha. Substance application was followed immediately by stress treatment of the plants. For this purpose, the wood-fibre pots were transferred in plastic inserts in order to prevent them from subsequently drying out too quickly. Drought stress was induced by gradual drying out under the following conditions: “Day”: 14 hours with illumination at 26-30° C. “Night”: 10 hours without illumination at 18-20° C. The duration of the respective stress phases was guided mainly by the condition of the stressed control plants. It was ended (by re-irrigating and transfer to a greenhouse with good growth conditions) as soon as irreversible damage was observed on the stressed control plants. The end of the stress phase was followed by an about 4-7-day recovery phase, during which the plants were once again kept under good growth conditions in a greenhouse. The duration of the recovery phase was guided mainly by when the trial plants had attained a state which enabled visual scoring of potential effects, and was therefore variable. Once this juncture had been reached, the appearance of the plants treated with test substances was recorded in comparison to the stressed control plants by the following categories: [table] For each substance and dosage, 3-4 pots were treated and evaluated. TRZAS=Triticum aestivum

[2] = biological target: T1, phosphatase ABI1 via the co-regulator RCAR11/PYR1 (Arabidopsis thaliana, UniProt O49686+P49597); assay: In vitro assay: inhibition of the phosphatase ABI1 via the co-regulator RCAR11/PYR1, MUP dephosphorylation, fluorescence; assay type: biochemical; set-up: inhibition: dose or concentration left out as unconfirmed; conditions: MUP dephosphorylation, fluorescence 460 nm; for ABI1 inhibition: concentration of 5 mM of the substance in a solution of DMSO and water; for inhibition: read-out: ABI1 inhibition
T1 sequence (O49686 1-191): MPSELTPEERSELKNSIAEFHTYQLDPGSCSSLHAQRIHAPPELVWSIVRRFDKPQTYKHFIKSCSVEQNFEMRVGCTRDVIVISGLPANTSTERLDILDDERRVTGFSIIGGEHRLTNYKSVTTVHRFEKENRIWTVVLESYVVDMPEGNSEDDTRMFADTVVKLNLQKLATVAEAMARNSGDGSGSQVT
T1 sequence (P49597 1-434): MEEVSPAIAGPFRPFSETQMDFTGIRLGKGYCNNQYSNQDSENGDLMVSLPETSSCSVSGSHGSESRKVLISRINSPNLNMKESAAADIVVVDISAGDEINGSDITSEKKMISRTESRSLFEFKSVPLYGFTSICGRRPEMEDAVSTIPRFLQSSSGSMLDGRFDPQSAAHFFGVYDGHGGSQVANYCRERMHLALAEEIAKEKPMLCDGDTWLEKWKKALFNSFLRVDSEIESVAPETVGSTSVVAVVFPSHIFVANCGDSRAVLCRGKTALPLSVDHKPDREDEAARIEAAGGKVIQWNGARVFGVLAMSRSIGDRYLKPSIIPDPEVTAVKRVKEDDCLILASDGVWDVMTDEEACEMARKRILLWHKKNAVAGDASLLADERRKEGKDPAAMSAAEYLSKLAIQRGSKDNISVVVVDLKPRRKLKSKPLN
Description: Effects of the phytohormone abscisic acid (ABA) on the behaviour of plants under abiotic stress and the mechanism of action of ABA are described in the literature (cf. Abrams et al, WO97/23441, Cutler, Park et al. Science, 2009, 324, 1068; Grill et al. Science, 2009, 324, 1064; Tanokura et al. Biophysics, 2011, 7, 123; Schroeder et al. Plant J. 2010, 61, 290). Therefore, it is possible with the aid of a suitable in vitro test system to derive a correlation between the action of ABA and the stress response of a plant under abiotic stress. Under drought stress, plants form the phytohormone abscisic acid (ABA). This binds, along with a co-regulator (Regulatory Component of ABA-Receptor=RCAR according to Grill et al. Science, 2009, 324, 1064 or PYR/PYL according to Cutler et al. Science, 2009, 324, 1068), to a phosphatase (e.g. ABI1, a type 2C protein phosphatase, also abbreviated to PP2C) and inhibits its activity. As a result, a “downstream” kinase (e.g. SnRK2) is no longer dephosphorylated. This kinase, which is thus active, via phosphorylation of transcription factors (e.g. AREB/ABF, vgl. Yoshida et al., Plant J. 2010, 61, 672), switches on a genetic protection programme to increase drought stress tolerance.
The assay described hereinafter utilizes the inhibition of the phosphatase ABI1 via the co-regulator RCAR11/PYR1 aus Arabidopsis thaliana.
For the determination of activity, the dephosphorylation of 4-methylumbelliferyl phosphate (MUP) was measured at 460 nm. The in vitro assay was conducted in Greiner 384-well PS microplates F-well, using two controls: a) dimethyl sulphoxide (DMSO) 0.5% (f.c.) and b) 5 μM (f.c.) abscisic acid (ABA). […] The substance solution thus obtained, if necessary, was stirred with esterase from porcine liver (EC 3.1.1.1) at room temperature for 3 h and centrifuged at 4000 rpm for 30 min. A total volume of 45 μl was introduced into each cavity of the microplate, having the following composition: • 1) 5 μl of substance solution, i.e. a) DMSO 5% or b) abscisic acid solution or c) the corresponding example compound of the general formula (I) dissolved in 5% DMSO. • 2) 20 μl of enzyme buffer mix, composed of a) 40% by vol. of enzyme buffer (10 ml contain equal proportions by volume of 500 mM Tris-HCl pH8, 500 mM NaCl, 3.33 mM MnCl2, 40 mM dithiothreitol (DTT)), b) 4% by vol. of ABI1 dilution (protein stock solution was diluted so as to give, after addition, a final concentration in the assay of 0.15 μg ABI1/well), c) 4% by vol. of RCAR11 dilution (enzyme stock was diluted so as to give, on addition of the dilution to the enzyme buffer mix, a final concentration in the assay of 0.30 μg enzyme/well), d) 5% by vol. of Tween20 (1%), e) 47% by vol. H2O bi-dist. • 3) 20 μl of substrate mix, composed of a) 10% by vol. of 500 mM Tris-HCl pH8, b) 10% by vol. of 500 mM NaCl, c) 10% by vol. of 3.33 mM MnCl2, d) 5% by vol. of 25 mM MUP, 5% by vol. of Tween20 (1%), 60% by vol. of H2O bi-dist.
Enzyme buffer mix and substrate mix were made up 5 minutes prior to the addition and warmed to a temperature of 35° C. On completion of pipetting of all the solutions and on completion of mixing, the plate was incubated at 35° C. for 20 minutes. Finally, a relative fluorescence measurement was made at 35° C. with a BMG Labtech “POLARstar Optima” microplate reader using a 340/10 nm excitation filter and a 460 nm emission filter. The efficacy of the compounds of the general formula (I) is reported in the table which follows using abscisic acid (No. 64) as comparative substance according to the following classification: ++++ (inhibition≥90%), +++ (90%>inhibition≥70%), ++ (70%>inhibition≥50%), +(50%>inhibition≥30%).
Effects of selected compounds of the general formula (I) in the above-described in vitro assay at a concentration of 5 mM of the substance of the general formula (I) in question in a solution of DMSO and water: […]

Brassica napus (BRSNS) = assay: In vivo analyses Part B: drought stress, appearance vs stressed control plants in categories (BRSNS); set-up: key: 0: no positive effect; 10: slight positive effect; 20: clear positive effect; 30: strong positive effect; conditions: category vs stressed control plants, 2-3 pots
Protocol: Seeds of monocotyledonous and dicotyledonous crop plants were sown in sandy loam in plastic pots, covered with soil or sand and cultivated in a greenhouse under good growth conditions. The test plants were treated at the early leaf stage (BBCH10-BBCH13). To assure uniform water supply before commencement of stress, the potted plants were supplied with water by dam irrigation prior to substance application. The inventive compounds, formulated in the form of wettable powders (WP), were sprayed onto the green parts of the plants as an aqueous suspension at an equivalent water application rate of 600 I/ha with addition of 0.2% wetting agent (e.g. agrotin). Substance application was followed immediately by stress treatment of the plants. Drought stress was induced by gradual drying out under the following conditions: “Day”: 14 hours with illumination at 26-30° C. “Night”: 10 hours without illumination at 18-20° C. The duration of the respective stress phases was guided mainly by the condition of the stressed control plants. It was ended (by re-irrigating and transfer to a greenhouse with good growth conditions) as soon as irreversible damage was observed on the stressed control plants. The end of the stress phase was followed by an about 4-7-day recovery phase, during which the plants were once again kept under good growth conditions in a greenhouse. The duration of the recovery phase was guided mainly by when the trial plants had attained a state which enabled visual scoring of potential effects, and was therefore variable. Once this juncture had been reached, the appearance of the plants treated with test substances was recorded in comparison to the stressed control plants by the following categories: [table] In order to rule out any influence on the effects observed by any fungicidal or insecticidal action of the test compounds, it was additionally ensured that the tests proceeded without fungal infection or insect infestation. For each substance and dosage, 2-3 pots were treated and evaluated. BRSNS=Brassica napus

SMILES | Effect (TRZAS) ([1]; dosage 25 g/ha) | ABI1 inhibition [2] | also measured
COC(=O)C=C(C#CC(O)(C1(C#N)CC1)C12CC3CC(CC(C3)C1)C2)C(F)(F)F (racemic) [I.1-752] | 10 |  | 
CCOC(=O)C=C(C=CC(O)(C(C)C)C1(C#N)CC1)CC (racemic) [I.2-103] |  |  | Effect (TRZAS) ([1]; dosage 250 g/ha): 30
CCOC(=O)C=C(C#CC(O)(C1(C#N)CC1)C12CC3CC(CC(C3)C1)C2)C(F)(F)F (racemic) [I.1-753] | 10 |  | 
CCOC(=O)C=C(C)C#CC(O)(C(CC)CC)C1(C#N)CC1 (racemic) [I.1-732] | 10 | ++++ (inhibition≥90%) | 
CCOC(=O)C=C(C)C#CC(O)(C1(C#N)CC1)C12CC3CC(CC(C3)C1)C2 (racemic) [I.1-762] |  |  | Effect (TRZAS) ([1]; dosage 250 g/ha): 10
CCOC(=O)/C=C(/C)C#CC(O)(C1CCCCC1)C1(C#N)CC1 (stereo not shown) [I.1-702] |  | ++++ (inhibition≥90%) | Effect (TRZAS) ([1]; dosage 250 g/ha): 10
COC(=O)/C=C(\C#CC(O)(C1CCC1)C1(C#N)CC1)C(F)(F)F (stereo not shown) [I.1-662] | 10-20 | ++++ (inhibition≥90%) | 
COC(=O)/C=C(\C=C\C(O)(C(C)C)C1(C#N)CC1)C(F)(F)F (stereo not shown) [I.2-120, Methyl (2E,4E)-6-(1-cyanocyclopropyl)-6-hydroxy-7-methyl-3-(trifluoro-methyl)octa-2,4-dienoate] |  |  | inhibition [2]: > 90%; Effect (BRSNS) (Brassica napus (BRSNS); spray application 250 g/ha): 30
COC(=O)/C=C(\C#CC(O)(C(C)C)C1(C#N)CC1)C(F)(F)F (stereo not shown) [I.1-120] |  | +++ (90%>inhibition≥70%) | Effect (BRSNS) (Brassica napus (BRSNS); spray application 250 g/ha): 20
CC/C(C#CC(O)(C(C)C)C1(C#N)CC1)=C/C(=O)NC1CC1 (stereo not shown) [I.1-157, (2Z)-6-(1-Cyanocyclopropyl)-N-cyclopropyl-3-ethyl-6-hydroxy-7-methyloct-2-en-4-ynamide] | 10 |  | 
CCC(C#CC(O)(C1(C#N)CC1)C12CC3CC(CC(C3)C1)C2)=CC(=O)OC (racemic) [I.1-738] | 10 |  | 
CC/C(C#CC(O)(C(C)C)C1(C#N)CC1)=C/C(=O)OC (stereo not shown) [I.1-102] |  | ++++ (inhibition≥90%) | Effect (BRSNS) (Brassica napus (BRSNS); spray application 250 g/ha): 30
CC/C(C#CC(O)(C(C)C)C1(C#N)CC1)=C/C(=O)OCCOC (stereo not shown) [I.1-606, 2-Methoxyethyl (2Z)-6-(1-cyanocyclopropyl)-3-ethyl-6-hydroxy-7-methyloct-2-en-4-ynoate] |  |  | inhibition [2]: > 90%; Effect (BRSNS) (Brassica napus (BRSNS); spray application 250 g/ha): 20
CCOC(=O)/C=C(\C#CC(O)(c1ccc(F)cc1)C1(C#N)CC1)CC (stereo not shown) [I.1-503, Ethyl (2Z)-6-(1-cyanocyclopropyl)-3-ethyl-6-(4-fluorophenyl)-6-hydroxyhex-2-en-4-ynoate] |  |  | inhibition [2]: > 90%; Effect (BRSNS) (Brassica napus (BRSNS); spray application 25 g/ha): 20-30
